These results are taken from patent publication US20230263822A1, “MODULATION OF FACTOR 11 EXPRESSION” (Ionis Pharmaceuticals, Inc., priority 2008, published 2023).

The test system of data set [1] is human Factor 11 mRNA. As to the kind of experiment: Antisense inhibition of human Factor 11 in HepG2 cells, lipofectin, 75 nM (Example 1). In kind it is cell-based. As to conditions: 75 nM antisense oligonucleotide, ~24 h, relative to untreated control cells, gapmers targeted to SEQ ID NO: 1. The essentials: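 HepG2 cells transfected via lipofectin with 75 nM antisense oligonucleotide (5-10-5 MOE gapmers, 20-mers, phosphorothioate, 5-methylcytidines), treated ~24 h. Factor 11 mRNA quantified by real-time PCR, normalised to RIBOGREEN total RNA; percent inhibition versus untreated cells.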

For data set [2], the system named is human Factor 11 mRNA. Briefly: Dose-dependent inhibition of human Factor 11 in HepG2 cells, electroporation 123.46-10,000 nM (Example 31). It counts as cell-based. A digest of the protocol:
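HepG2 cells were electroporated with antisense oligonucleotide at 123.46, 370.37, 1,111.11, 3,333.33 and 10,000 nM and harvested about 16 hours later. Factor 11 mRNA was quantified by qRT-PCR and normalised to total RNA (RIBOGREEN). Inhibition is expressed relative to untreated cells.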

Strand notation (5' to 3'): a small letter for the sugar, then the base; units joined by * are phosphorothioate-linked, units joined directly phosphodiester-linked; [ ] holds rarer units or linkages, { } end groups; capitals alone tell only the bases. e = 2'-O-(2-methoxyethyl) (MOE); [5mC] = 5-methylcytosine; d = 2'-deoxy (DNA)

For the substance “412206 (antisense e[5mC]*e[5mC]*eG*eT*eG*d[5mC]*dA*dT*d[5mC]*dT*dT*dT*d[5mC]*dT*dT*eG*eG*e[5mC]*eA*eT) [compound 412206]”, in data set [1], the “% inhibition” value is given as 87%. In the case of “412223 (antisense ACAGTTTCTGGCAGGCCTCG; 5-10-5 MOE gapmer, further chemistry not given here) [compound 412223]”, the “% inhibition” value in data set [1] amounted to 84%.

For the substance “412224 (antisense GCATTGGTGCACAGTTTCTG; 5-10-5 MOE gapmer, further chemistry not given here) [compound 412224]”, the “% inhibition” value in data set [1] amounted to 87%. Turning to “412225 (antisense GCAGCGGACGGCATTGGTGC; 5-10-5 MOE gapmer, further chemistry not given here) [compound 412225]”, in data set [1], the “% inhibition” value was 86%. For the substance “413482 (antisense GGACGGCATTGGTGCACAGT; 5-10-5 MOE gapmer, further chemistry not given here) [compound 413482]”, the “% inhibition” value in data set [1] is 85%. For the substance “416850 (antisense TGCACAGTTTCTGGCAGGCC; 5-10-5 gapmer, further chemistry not given here) [compound 416850]”, the “Percent inhibition of Factor 11 mRNA at 123.47 nM” value in data set [2] (electroporation, 123.47 nM, approx. 16 hours, relative to untreated control cells) was 0%. Further, the “Percent inhibition of Factor 11 mRNA at 370.37 nM” value in data set [2] (electroporation, 370.37 nM, approx. 16 hours, relative to untreated control cells) was found to be 12%. In addition, the “Percent inhibition of Factor 11 mRNA at 1,111.11 nM” value in data set [2] (electroporation, 1,111.11 nM, approx. 16 hours, relative to untreated control cells) is reported as 36%. For the same substance, the “Percent inhibition of Factor 11 mRNA at 3,333.33 nM” value in data set [2] (electroporation, 3,333.33 nM, approx. 16 hours, relative to untreated control cells) worked out at 74%. Also, in data set [2] (electroporation, 10,000.0 nM, approx. 16 hours, relative to untreated control cells), the “Percent inhibition of Factor 11 mRNA at 10,000.0 nM” value stood at 73%. In data set [2] (electroporation, Factor 11 mRNA expression), this substance displayed a half-inhibitory concentration (IC50) of 2800 nM.

What is called % inhibition is the drop in the measured response relative to a control, in per cent. One may read the IC50 as the midpoint of a concentration-inhibition curve.
